Experimental findings from ChEMBL document CHEMBL3585263, “Novel Octahydropyrrolo[3,4-c]pyrroles Are Selective Orexin-2 Antagonists: SAR Leading to a Clinical Candidate” (J Med Chem, 2015) are described below.

The structures appear in SMILES notation. pKi: −log10 of the molar value.

Assay [1] concerns the target T1, Orexin/Hypocretin receptor type 1 (Homo sapiens, UniProt O43613).
T1 sequence (O43613 whole entry): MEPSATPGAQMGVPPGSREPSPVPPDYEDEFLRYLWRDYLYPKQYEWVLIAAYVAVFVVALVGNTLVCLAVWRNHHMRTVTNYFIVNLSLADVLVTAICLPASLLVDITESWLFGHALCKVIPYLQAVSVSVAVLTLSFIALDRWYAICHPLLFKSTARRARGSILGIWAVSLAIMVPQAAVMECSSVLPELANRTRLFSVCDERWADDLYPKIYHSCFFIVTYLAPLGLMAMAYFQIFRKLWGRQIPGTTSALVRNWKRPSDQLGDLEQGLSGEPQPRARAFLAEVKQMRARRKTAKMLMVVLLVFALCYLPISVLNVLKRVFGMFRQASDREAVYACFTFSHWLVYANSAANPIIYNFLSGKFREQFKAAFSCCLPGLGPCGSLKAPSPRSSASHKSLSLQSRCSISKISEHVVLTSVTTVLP
Kind of assay: Binding affinity to human OX1 receptor.

The target in assay [2] is T2, Orexin receptor type 2 (Homo sapiens, UniProt O43614).
T2 sequence (O43614 whole entry): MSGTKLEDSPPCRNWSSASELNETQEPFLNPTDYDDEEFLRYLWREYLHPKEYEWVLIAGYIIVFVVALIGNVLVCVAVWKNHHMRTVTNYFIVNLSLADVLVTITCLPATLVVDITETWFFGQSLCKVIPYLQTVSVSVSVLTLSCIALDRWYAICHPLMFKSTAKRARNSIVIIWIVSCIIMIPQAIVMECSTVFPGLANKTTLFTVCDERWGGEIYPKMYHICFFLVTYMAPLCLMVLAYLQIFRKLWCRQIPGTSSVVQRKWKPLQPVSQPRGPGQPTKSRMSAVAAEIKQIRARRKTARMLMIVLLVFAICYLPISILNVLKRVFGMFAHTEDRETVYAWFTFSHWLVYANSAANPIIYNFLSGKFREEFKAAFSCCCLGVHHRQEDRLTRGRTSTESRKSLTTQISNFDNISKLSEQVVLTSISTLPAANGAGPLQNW
Nature of the assay: Displacement of [3H]EMPA from human OX2 receptor expressed in human PFSK-1 cells. Format: cell-based. Background: Displacement assays read how much labelled ligand stays bound in the presence of the test substance.

Assay [3] has as its target T2, Orexin receptor type 2. Kind of assay: Binding affinity to human OX2 receptor.

Turning to `COc1cccc(OC)c1C(=O)N1C[C@@H]2CN(c3nc4ccc(Cl)cc4s3)C[C@@H]2C1`, the values for the pKi (in assay [1]; at Orexin receptor type 2 [2]; at Orexin receptor type 2 [3]) were 5.16, 5.80 and 5.66, respectively.

Usually pKi stands for the Ki on a negative log10 scale, so that one unit is a factor of ten. A low value points to a high Ki.
